Test results as given in patent US20070225256A1, “COMPOUND” (priority 2004, published 2007).
pIC50: −log10 of the molar value. Where two headings read alike, the source gives them in different places.

Key:
[1] = target: T1, steroid sulphatase (Homo sapiens, UniProt P08842); settings: compared with EMATE; cited from earlier work
T1 sequence (P08842 22-583): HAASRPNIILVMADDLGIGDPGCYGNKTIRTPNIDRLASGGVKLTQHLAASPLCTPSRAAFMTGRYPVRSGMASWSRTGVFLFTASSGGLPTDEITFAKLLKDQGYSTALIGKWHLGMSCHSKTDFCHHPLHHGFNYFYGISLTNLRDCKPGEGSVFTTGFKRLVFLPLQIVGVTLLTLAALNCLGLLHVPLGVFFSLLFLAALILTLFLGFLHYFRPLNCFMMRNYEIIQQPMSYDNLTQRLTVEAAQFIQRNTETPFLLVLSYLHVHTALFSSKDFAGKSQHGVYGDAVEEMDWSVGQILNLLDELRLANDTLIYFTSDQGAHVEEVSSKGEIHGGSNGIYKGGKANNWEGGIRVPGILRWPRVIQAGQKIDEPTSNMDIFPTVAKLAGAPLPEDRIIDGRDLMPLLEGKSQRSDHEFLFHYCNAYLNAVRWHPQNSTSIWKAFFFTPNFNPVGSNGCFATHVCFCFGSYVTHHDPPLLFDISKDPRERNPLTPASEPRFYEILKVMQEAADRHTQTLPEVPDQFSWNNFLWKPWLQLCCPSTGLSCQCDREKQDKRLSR

[2] = cited from earlier work
[3] = test system: MCF-7; experiment: Inhibition of MCF-7 cell proliferation; format: cell-based; settings: for pIC50: read-out: Concentration for 50% inhibition of MCF-7 proliferation
Protocol: MCF-7 breast cancer cells are seeded into multi-well culture plates at a density of 10^5 cells/well. Cells were allowed to attach and grown until about 30% confluent when they are treated as follows:
Cells are grown for 6 days in growth medium containing the COI with changes of medium/COI every 3 days. At the end of this period cell numbers were counted using a Coulter cell counter.
Inhibition of MCF-7 Cell Proliferation

[4] = cited from earlier work; remark: listed apart in the source
[5] = target: T2, E1-STS (Homo sapiens, UniProt P08842); design: endogenous in cells; host or cells: MCF-7; settings: 0.1 nM; cited from earlier work
T2 sequence (P08842 22-583): T1 sequence (P08842 22-583)

[6] = target: T2, E1-STS; settings: compared with EMATE; cited from earlier work

For `COc1cc2c(cc1OS(N)(=O)=O)CC[C@@H]1[C@@H]2CC[C@]2(C)C(=O)CC[C@@H]12` [2-methoxyoestrone-3-O-sulphamate], the “potency as a steroid sulphatase inhibitor” value [1] is given as “equipotent with EMATE” and the oestrogenicity ([2]; rat, in vivo) is given as “devoid of oestrogenicity”.

With `CCc1cc2c(cc1OS(N)(=O)=O)CC[C@@H]1[C@@H]2CC[C@]2(C)C(CS(C)(=O)=O)CC[C@@H]12` (some centres unmarked) [Compound 8, 2-Ethyl-3-O-sulfamoyl-17-methanesulfonylmethyl estrone] the “% Inhibition of MCF-7 proliferation at 10 μM” value (shortened to “% Inhibition”) [3] was 79%.

With `CCc1cc2c(cc1OS(N)(=O)=O)CC[C@@H]1[C@@H]2CC[C@]2(C)[C@@H](CC)CC[C@@H]12` [Compound 11, 2-Ethyl-3-O-sulfamoyl-17-β-ethyl-17-deoxy estrone] the “% Inhibition” value [3] was 83%.

For `CCc1cc2c(cc1OS(N)(=O)=O)CC[C@@H]1[C@@H]2CC[C@]2(C)[C@@H](CCF)CC[C@@H]12` [Compound 14, 2-Ethyl-3-O-sulfamoyl-17β-(2-fluoro-ethyl)-17-deoxy estrone], the “% Inhibition” value [3] was 89%.

For `CCc1cc2c(cc1OS(N)(=O)=O)CC[C@@H]1[C@@H]2CC[C@]2(C)[C@@H](C[N+](=O)[O-])CC[C@@H]12` [Compound 23, 2-Ethyl-3-O-sulfamoyl-17β-nitromethyl-17-deoxy estrone], the “% Inhibition” value [3] was <50%.

With `CCc1cc2c(cc1OS(N)(=O)=O)CC[C@@H]1[C@@H]2CC[C@]2(C)[C@@H](CC(C)=O)CC[C@@H]12` [Compound 29, 2-Ethyl-3-O-sulfamoyl-17β-(2-oxopropyl) estrone] the “% Inhibition” value [3] was 69%.

`COc1cc2c(cc1O)CCC1C2CC[C@@]2(C)C1CC[C@@H]2OC(N)=O` (some centres unmarked) [Compound 57, 2-Methoxy-estradiol-17-carbamate] showed a pIC50 ([3]; Homo sapiens, MCF7) of 4.36.

Work on `COc1cc2c(cc1OS(N)(=O)=O)CC[C@@H]1[C@@H]2CC[C@]2(C)[C@@H](OC(N)=O)CC[C@@H]12` [Compound 58, 2-Methoxy-3-O-sulfamoyl estradiol-17-carbamate] yielded a pIC50 [3] of 5.74.

For `C[C@]12CC[C@@H]3c4ccc(OS(=O)(=O)O)cc4CC[C@H]3[C@@H]1CCC2=O` [Compound E1S, oestrone sulphate], the half-life in blood [4] is listed as 10 to 12 h.

For `CC12CCC3c4ccc(OS(N)(=O)=O)cc4CCC3C1CCC2=O` (centres unmarked) [EMATE, oestrone-3-sulphamate], the “oral uterotrophic activity relative to estradiol” value ([2]; rats, oral) is listed as 100 times and the “inhibition of E1-STS activity in intact MCF-7 cells” value [5] is listed as “more than 99%”.

In the case of oestrone-3-N-sulphamate, the E1-STS inactivation [6] is given as “weaker non-time-dependent inactivators”.

In the case of oestrone-3-S-sulphamate, the E1-STS inactivation [6] is listed as “weaker non-time-dependent inactivators”.
